# Patent US10493046B2, “5-hydroxytryptamine 1B receptor-stimulating agent for use as a promoter of satellite cells self-renewal and/or differentiation” (INSTITUT PASTEUR, priority 2015, dated 2019)
# Where “and” joins values, the source holds several entries; their conditions need not be identical. Identical values can stand only once.
# How the values were obtained:
# [1] = system: satellite cells; test: FACS-sorted satellite cells in vitro, compound added to the culture medium; assay type: cell-based, mouse; details: for Pax7+ (reserve, self-renewing) cells 14 days post-plating / Pax7 positive cells 4 days post-plating / Cells MyoG+ (Myogenin staining): compound added at 10 μM; for Pax7 positive cells 4 days post-plating: 2.000 cells per cm^2; for Cells MyoG+ (Myogenin staining): after 4 days
# Description: (§1) Muscle dissection was done as previously described in cold DMEM. Muscles were then chopped with small scissors and put in a 50 ml Falcon tube with collagenase 0.1% and trypsin 0.25% at 37° C. with gentle agitation. After 20 minutes, the supernatant was collected in 20% serum placed on ice, and the collagenase/trypsin solution was added to continue the digestion. Once muscle was completely digested, the solution was filtrated using 40 μm cell strainers. Satellite cells were cultured in 1:1 DMEM-Glutamax (Gibco#41965-039):MCDB201 (Sigma#M6770) containing 20% serum FBS (Biowest S1860). Medium was filtered using 0.22 μm filters. Cells were plated on Matrigel coating (BD Biosciences#354234) and kept in an incubator (37° C., 5% CO2). […] The thus-obtained supernatant replaced FBS in the culture medium; the rest of the medium was unchanged.
# Satellite cells were isolated from Tg:Pax7nGFP mice and cells were plated at 2.000 cells per cm^2. After overnight, vortioxetine was added at 10 μM. […] 14 days post-plating, a higher number of reserve cells (Pax7 positive cells that are quiescent in vitro) were detected in the vortioxetine-treated cells (9%±0.7) than in the PBS (3.5%±0.9, p=0.01), and when GR127935 inhibitor was added in vitro the number of reserve cells dropped (3.5%±0.9, p=0.9) (FIG. 11c). […] This difference in expression was lost when SC were plated with the GR127935 5-HT1 BR inhibitor (p=0.4) (FIGS. 11c-e). The positive effects of vortioxetine were lost when GR127935 was added in vitro together with vortioxetine (FIGS. 11c-e). These effects were however persistent when adding the 5-HT2 BR antagonist (FIGS. 11c-e). This means that the positive effects observed when plating vortioxetine in vitro with satellite cells is mediated via the 5HT1B receptor and not 5HT2B.
# To test whether, 2 derivatives of vortioxetine, namely histidine-vortioxetine and pyrrolidinium-vortioxetine, could have similar or improved effect compared to the unmodified vortioxetine, the in vitro approach as described in section 2.2.3 above was used and the differentiation cascade of satellite cells was investigated by assessing the expression pattern of Pax7 (a marker of stemness and quiescence) and Myogenin (MyoG, a marker of differentiation) as described above in section 2.2.3. To do so, satellite cells from Tg:Pax7-nGFP were isolated by FACS and plated at 2.000 cells per cm^2 (seeded overnight). The following day, the vortioxetine, its derivatives, or the control PBS was added at 10 μM and the cells were fixed at the indicated time points.
# [2] = system: satellite cells; test: Satellite cell (SC) number in tibialis anterior of treated mice (histological count or FACS cytometry); assay type: in vivo, mouse
# [3] = system: vessels; test: Vessel number in tibialis anterior of treated mice (Flk1GFP/+ or CD31 immunostaining); assay type: in vivo, mouse
# Description: (§2) Immunostaining was performed on cryosections fixed with 4% paraformaldehyde (PFA EMS#15710) in cold PBS, permeabilized with 0.5% Triton X-100 20 min at room temperature, washed, and blocked with 10% BSA for 30 min. Sections were incubated with primary antibodies overnight at 4° C. (see Table 1 below) and with Alexa-conjugated secondary antibodies 1/250 and Hoechst for 45 minutes. Sections were then analysed using an automated axioscan (Zeiss) or inverted Observer.Z1 Apotome (Zeiss). For apoptosis assessment, cells were collected in 2% serum, spun on polyD-lysine (Sigma-Aldrich#P6407), and immediately fixed with PFA 4%.
# Throughout the study, focus was made on the tibialis anterior (TA). In skeletal muscle, SC are central for muscle repair. […] SC are localized close to capillaries and angiogenesis is known to be crucial for muscle repair SC survival with cellular interplays between vessel cells and SC. The number of vessels was therefore quantified. In control Flk1^GFP/+ mouse (placebo), the number of vessels was of 870±213.1 vessels per mm^2 and increased after 3 weeks of I.P treatment (1103±110.2 vessels per mm^2), and even more after 6 weeks (1384±175.3 vessels per mm^2, p=0.008) (FIG. 2e). Neovessels presented with normal histological appearance associating a basal lamina and a permeable lumen sometimes containing red blood cells. […] 841±137 CD31+ cells per mm^2 were counted in the placebo-treated mice vs. 2260±361 CD31+ cells per mm^2 in the fluoxetine-treated mice, p=0.008 (FIG. 2t-v), confirming the previous observation.
# In order to investigate the effect of vortioxetine on vessels number, intra peritoneal (I.P) administration of 20 mg/kg of vortioxetine was performed for either 12 days, 3 or 6 weeks to C57Bl/6 mice (FIG. 10a). The number of CD31+ cells was counted by immunostaining. The number of vessels in the placebo is (863.5±115.6 vessels per mm^2) and increases after 12 days of I.P treatment (2274±926 vessels per mm^2, p=0.03), and even more after 3 weeks (2847±705 vessels per mm^2, p=0.02) (FIG. 10b). However, there was no statistically significant differences between 12 days and 3 weeks of treatment (p=0.49). Neovessels display a normal histological appearance associated with a basal lamina and a permeable lumen sometimes containing red blood cells. The daily administration of vortioxetine IP might cause unwanted peritoneal inflammation that could interfere with angiogenesis since inflammation and neovascularization are intertwined in some models. Vortioxetine was therefore administered per os (P.O) for 12 days: a similar increase in the number of vessels was observed (2451±595 vessels per mm^2 p=0.028, FIG. 10c). To further confirm those results, vortioxetine will be administered to Flk1^GFP/+ mice P.O and I.P for 12 days, and an ex vivo Matrigel angiogenesis assay and plasma from vortioxetine treated mice will be used on HUVEC (endothelial cells).
# [4] = system: vessels; test: as above; assay type: in vivo, mouse; details: vortioxetine I.P 12 days and PBS in osmotic pump
# [5] = system: satellite cells; test: Satellite cell (SC) number in tibialis anterior of treated mice (histological count or FACS cytometry); assay type: in vivo, mouse; details: for Number of satellite cells per TA by cytometry: Tg:Pax7nGFP mice
# Description: For satellite cell counting, only the tibialis anterior muscle was dissected and digested as described earlier, and the totality of the tube was analysed to assess the number of satellite cells per muscle. FACS analysis was done using a FACSasia (Beckman). All analyses and quantitation were performed using Summit v4.3 software from DakoCytomation and FloJo software. […]
# In order to count the number of satellite cells, the tibialis anterior (TA) of Tg:Pax7nGFP mice were digested and analysed by FACS in placebo and vortioxetine (12 days, 20 mg/Kg) treated mice. […] After 3 weeks of vortioxetine treatment, the number of satellite cells was even higher (9351 satellite cells±706, p=0.0079) but no statistically significant differences were found between 12 days and 3 weeks of treatment (p=0.15).
# [6] = system: Tibialis anterior; test: Muscle regeneration after notexin injury of tibialis anterior; assay type: in vivo, mouse; details: antagonist together with fluoxetine; SC, differentiating cells, fiber size, calcium deposits, fibrosis, Gr1 and F4/80 cells
# Description: Animals were anesthetized with ketamine (Imalgene1000 100 mg/Kg Merial) and Xylazine (Rompun2% 20 mg/Kg Bayer) prior to injury. Animals were hydrated and treated with analgesic (Buprenorphin Axience 0.3 mg/kg) twice a day for 4 d following injury. For the injury, mice were anesthetized as previously described and 10 μl of 12.5 μg/ml Notexin (Lotaxan) was injected in the Tibialis anterior. All protocols were reviewed by the Institut Pasteur, the competent authority, for compliance with the French and European regulations on Animal Welfare and with Public Health Service recommendations. This project has been reviewed and approved (#2013-0044) by the Institut Pasteur ethic committee (C2EA 89-CETEA).
# Tibialis anterior (TA) was carefully dissected and snap frozen in liquid-nitrogen-cooled isopentane for a few minutes and stored at −80° C. prior to cryosectioning (10 μm sections). Sections were kept at room temperature overnight before staining. Sections were then rehydrated in PBS for 10 minutes and fixed in 10% formalin for 3 minutes. The sections were then routinely stained with haematoxylin and eosin (HE) using an automated stain machine or manually with red sirius.
# as §2
# For image analysis (fibrosis quantification), ImageJ 1.46r software was using between 10 different photos randomly taken per section and 3 sections minimum per experimental group. The pictures were converted in a binary image and the pixel values then collected. For fibre size, the sections were immunostained with rabbit anti Laminin (Sigma-Aldrich #L9393) diluted at 1/200, overnight at 4° C. Secondary Donkey ant Rabbit 488 (DL488 JacksonImmuno #711486152) were used at 1/200 45 minutes at room temperature. The fibre perimeter was done automatically by using Pixcavator® software.
# [7] = system: satellite cells; test: Satellite cells in vitro in plasma of treated mice (live videomicroscopy, immunostaining); assay type: cell-based, mouse; details: plasma from fluoxetine-treated mice plus MDL100907
# Description: as §1
# Cells isolated by FACS were plated overnight on a 24-well glass bottom plate (P24G-0-10-F; MatTek) coated with matrigel (BD Biosciences#354234) and placed in an incubator in pre-equilibrated medium (1:1 DMEM Glutamax: MCDB [Sigma-Aldrich], 20% FCS (Biowest S1860). The plate was then incubated at 37° C., 5% CO2 (Zeiss, Pecon). A Zeiss Observer.Z1 connected with a LCI PInN 10×/0.8 W phaseII objective and AxioCam camera piloted with AxioVision was used. Cells were filmed for up to 5 days, and images were taken every 30 min with brightfield and phase filters and MozaiX 3×3 (Zeiss). Raw data were transformed and presented as a video.
# Those results were confirmed in vitro (FIG. 7a). […] This difference was lost when SC were plated with GR127935 (p=0.4) (FIG. 7e). The faster exit of quiescence and higher division rates were also lost when adding GR127935 in vitro (FIGS. 7f,g). The effects of the plasma from fluoxetine-treated animals were persistent when adding MDL100907 (FIGS. 7b-g).
structure (smiles),measurement,setting,value
"Cc1ccc(Sc2ccccc2N2CCNCC2)c(C)c1 [vortioxetine, 1-[2-(2,4-Dimethylphenylsulfanyl)phenyl]piperazine]","Pax7+ (reserve, self-renewing) cells 14 days post-plating",[1],9% and 10.5±0.65%
same,Pax7 positive cells 4 days post-plating,[1],23% and 23.7±2.78%
same,Cells MyoG+ (Myogenin staining),[1],34.5±2.5%
same,MyoD (activation marker) expression between conditions,[1]; vortioxetine 10 μM vs PBS vs GR127935,did not differ at any time investigated
same,Myogenin (MyoG) expression increase,"[1]; vortioxetine 10 μM, 4 days post-plating",2 times increase
same,SC increase by histological count on TA sections,"[2]; vortioxetine 12 days, 20 mg/Kg",two-fold increase
same,Number of vessels (CD31+),"[3]; vortioxetine 20 mg/kg I.P, 3 weeks, C57Bl/6 mice",2847±705 vessels per mm^2
same,Number of vessels (CD31+),"[3]; vortioxetine 20 mg/kg I.P, 12 days, C57Bl/6 mice",2274±926 vessels per mm^2
same,Number of vessels (CD31+),"[3]; vortioxetine per os (P.O), 12 days",2451±595 vessels per mm^2
same,Number of vessels,[4],2274±926 vessels per mm^2
same,Number of satellite cells per TA by cytometry,[5]; vortioxetine 3 weeks,9351 satellite cells
same,Number of satellite cells per TA by cytometry,"[5]; vortioxetine 12 days, 20 mg/Kg",8660 satellite cells
same,SC number after P.O administration vs I.P,[5]; vortioxetine P.O at 20 mg/kg,a similar increase in SC number
CCCOc1ccc2[nH]cc(C3=CCNCC3)c2n1 [5-HT1B agonist],Effect of direct addition on differentiation and self-renewal of SC,"[1]; direct addition in the culture media, Pax7+ and Myogenin+ cells",triggered the same effect as the addition of plasma from fluoxetine-treated mice
COc1cccc([C@H](O)C2CCN(CCc3ccc(F)cc3)CC2)c1OC [MDL100907],Effect of the antagonist on the beneficial effects of fluoxetine after injury,[6],did not suppress the beneficial effects of fluoxetine
same,Effects of vortioxetine when adding the 5-HT2 BR antagonist,[1]; 5-HT2 BR antagonist together with vortioxetine 10 μM,persistent
same,Inhibition of fluoxetine effects on SC and vessel number by the antagonist,[2]; antagonist together with fluoxetine treatment,no inhibition of fluoxetine effects were observed
same,Inhibition of vortioxetine effects on vessels and SC number by the antagonist,[5]; MDL100907 together with vortioxetine,No inhibition of vortioxetine effects was observed
same,Effects of the plasma from fluoxetine-treated animals when adding MDL100907,[7],persistent
Cc1ccc(Sc2ccccc2N2CC[N+]3(CCCC3)CC2)c(C)c1 [pyrrolidinium-vortioxetine],Increase in number of self-renewing cells compared with vortioxetine alone,"[1]; 10 μM, 14 days post-plating",20%
same,"Pax7+ (reserve, self-renewing) cells 14 days post-plating",[1],12.5±1.9%
same,Pax7 positive cells 4 days post-plating,[1],25.25±4%
same,Cells MyoG+ (Myogenin staining),[1],19.75±0.47%
same,Number of SCs in the TA vs PBS,"[5]; 20 mg/Kg IP for 12 days, TgPax7nGFP mice",doubling
